From article PMC10873978, “Novel tetrahydroisoquinolines as DHFR and CDK2 inhibitors: synthesis, characterization, anticancer activity and antioxidant properties” (BMC Chemistry, 2024)

Columns and labels:
[1] = target: T1, Dihydrofolate Reductase (DHFR) (Homo sapiens, UniProt P00374); experiment: DHFR inhibitors assay kit (absorbance 340 nm); format: biochemical; settings: for %inh: DHFR
T1 construct: purchased abcam ab283374
T1 sequence (P00374 1-187): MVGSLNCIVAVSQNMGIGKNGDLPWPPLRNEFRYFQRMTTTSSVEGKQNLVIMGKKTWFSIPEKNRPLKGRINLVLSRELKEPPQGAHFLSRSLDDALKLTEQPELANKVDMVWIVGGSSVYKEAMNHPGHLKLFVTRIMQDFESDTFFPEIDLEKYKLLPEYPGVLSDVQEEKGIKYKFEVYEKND
Experimental: The DHFR inhibitors assay kit was performed according to abcam (code ab283374); (www.abcam.co.jp).
Firstly, Dilute 2 μL Dihydrofolate Reductase with798 μL DHFR Assay Buffer. Then add 98 μL of diluted Dihydrofolate Reductase into desired well(s) containing the out synthesized 8d compound. Add 40 μL of diluted NADPH to each well containing the test samples. Incubate at room temperature for 10–15 min. Add 60 μL of diluted DHFR substrate to each well containing the test samples vortex briefly and keep on ice. Measure the absorbance immediately at 340 nm. Then calculate the inhibition concentration of 8d compound. The data was analyzed and plot by Graphpad prism software.

[2] = Cytotoxicity on normal cell line WI-38; format: cell-based, human; settings: human, WI-38 cells (normal fetal lung fibroblasts)
MCF7 cell line = experiment: Annexin-V FITC/PI apoptosis assay, MCF7; format: cell-based, human; settings: MCF7, compound at IC50, 24 h
Experimental: (www.biovision.com). […] These stained cells were measured using flow cytometry with an excitation wavelength of 488 nm and an emission wavelength of 530 nm. The results were then analyzed with the Cell quest software.
To further investigate whether the anti-proliferative activity for compound 7e or 8d is harmonious with the apoptosis induction within A549 or MCF7 cells pointed out by the increased cell population in G2/M phase in 7e-treated A549 cells and S phase in 8d-treated MCF7 cells, respectively, and AnnexinV-FITC/PI dual staining analysis was used for the apoptosis assay (Fig. 3).

MCF7 cells = experiment: Cell cycle analysis (propidium iodide flow cytometry), MCF7; format: cell-based, human
Experimental: Then centrifuged the cells and washed twice with ice-cold PBS, and incubated for 20 min at 4 °C. A cell cycle assay was used to assess the cell cycle (Propidium Iodide Flow Cytometry Kit [ab13941]. Then perform statistical analysis for the result by the Cell quest software on the cell fractions in sub-G0/G1, S, and G2/M phases.

IKB kinase B = target: T2, IKB kinase B (Homo sapiens, UniProt O14920); experiment: IKB kinase inhibition; format: biochemical; settings: for %inh: IκB
T2 sequence (O14920 1-756): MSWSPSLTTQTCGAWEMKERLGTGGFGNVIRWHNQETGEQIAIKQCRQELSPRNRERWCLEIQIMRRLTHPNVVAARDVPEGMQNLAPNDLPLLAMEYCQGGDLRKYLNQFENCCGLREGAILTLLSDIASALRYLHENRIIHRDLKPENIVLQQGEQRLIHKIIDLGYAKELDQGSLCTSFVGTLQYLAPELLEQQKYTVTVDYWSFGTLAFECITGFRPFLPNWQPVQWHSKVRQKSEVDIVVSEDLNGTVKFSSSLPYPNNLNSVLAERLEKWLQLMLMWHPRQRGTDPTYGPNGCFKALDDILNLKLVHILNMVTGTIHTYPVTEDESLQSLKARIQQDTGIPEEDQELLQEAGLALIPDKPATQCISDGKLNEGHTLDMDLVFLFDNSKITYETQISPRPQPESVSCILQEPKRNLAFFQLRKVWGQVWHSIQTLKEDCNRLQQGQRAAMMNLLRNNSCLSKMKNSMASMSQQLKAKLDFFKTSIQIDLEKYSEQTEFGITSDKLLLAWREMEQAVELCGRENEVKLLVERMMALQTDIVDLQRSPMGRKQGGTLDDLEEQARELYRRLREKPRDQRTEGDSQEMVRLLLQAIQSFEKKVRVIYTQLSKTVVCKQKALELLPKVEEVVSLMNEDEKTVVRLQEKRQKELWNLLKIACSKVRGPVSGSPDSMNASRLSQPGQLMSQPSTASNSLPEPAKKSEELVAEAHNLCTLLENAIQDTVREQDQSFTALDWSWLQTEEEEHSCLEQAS

A549 cell line = experiment: In vitro cytotoxic activity, MTT method, A549
Outline: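 Monolayers formed over 24 h at 37 °C from 10^5 cells/mL were treated with graded compound concentrations, doxorubicin serving as reference. Viability came from MTT reduction over 1–5 h (5% CO2), absorbance at 560 nm with 620 nm background subtraction.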

[3] = MCF7 cells, compound at IC50, 48 h

%inh ([1]; conc 0.01 (log -2)): 27.5%
%inh ([1]; conc 0.1 (log -1)): 38.9%
%inh ([1]; conc 1 (log 0)): 67.1%
%inh ([1]; conc 10 (log 1)): 85.7%
%inh ([1]; conc 100 (log 2)): 93%
IC50 ([1]; read-out: DHFR inhibition (IC50 ± SD)): 199 ± 16 nM
%inh (IKB kinase B; conc 0.01 (log -2)): 21.8%
%inh (IKB kinase B; conc 0.1 (log -1)): 42.3%
%inh (IKB kinase B; conc 1 (log 0)): 63.9%
%inh (IKB kinase B; conc 10 (log 1)): 86.4%
%inh (IKB kinase B; conc 100 (log 2)): 93.7%
IC50 (IKB kinase B; read-out: IKB kinase B (IC50 ± SD)): 240 ± 13 nM
Structure (SMILES): CC(=O)c1ccc(NC(=O)c2sc3nc(C)c4c(c3c2N)CC(C)(O)C(C(C)=O)C4c2ccc(N(C)C)cc2)cc1 (stereo not shown) [Compound 8d, 7-Acetyl-N-(4-acetylphenyl)-1-amino-5,8-dimethyl-8-hydroxy-6-(4-N,N-dimethylaminophenyl)-6,7,8,9-tetrahydrothieno[2,3-c]isoquinoline-2-carboxamide]
viability at 3.125 µM ([2]; WI38): 86.3%
viability at 1.55 µM ([2]; WI38, 1.55uM (log conc. 0.19), read-out: % viability): 96.7%
viability at 6.25 µM ([2]; WI38, 6.25uM (log conc. 0.8), read-out: % viability): 74%
viability at 12.5 µM ([2]; WI38, 12.5uM (log conc. 1.1), read-out: % viability): 62.8%
viability at 25 µM ([2]; WI38, 25uM (log conc. 1.4), read-out: % viability): 46.9%
early apoptotic population (MCF7 cell line): 22.38%
late apoptotic population (MCF7 cell line): 26.96%
population of necrotic cells (MCF7 cell line): 5.04%
phase of cell cycle arrest (MCF7 cells; MCF7 cell line): S phase
DNA content %G0-G1 (MCF7 cells; [3]): 52.03%
DNA content %G2/M (MCF7 cells; [3]): 10.05%
DNA content %S (MCF7 cells; [3]): 37.92%
Toxicity % (A549 cell line; A549, Conc. 0.04875 µMol): 13.49%
Toxicity % (A549 cell line; A549, Conc. 0.0975 µMol): 15.39%
Toxicity % (A549 cell line; A549, Conc. 0.195 µMol): 19.17%
Viability % (A549 cell line; A549, Conc. 0.195 µMol): 80.83%
Toxicity % (A549 cell line; A549, Conc. 0.391 µMol): 43.87%
Viability % (A549 cell line; A549, Conc. 0.391 µMol): 56.13%
Toxicity % (A549 cell line; A549, Conc. 0.781 µMol): 53.45%
Viability % (A549 cell line; A549, Conc. 0.781 µMol): 46.55%
Toxicity % (A549 cell line; A549, Conc. 1.562 µMol): 68.4%
Viability % (A549 cell line; A549, Conc. 1.562 µMol): 31.6%
Toxicity % (A549 cell line; A549, Conc. 3.125 µMol): 82.68%
Viability % (A549 cell line; A549, Conc. 3.125 µMol): 17.32%
Toxicity % (A549 cell line; A549, Conc. 6.25 µMol): 88.4%
Viability % (A549 cell line; A549, Conc. 6.25 µMol): 11.6%
Toxicity % (A549 cell line; A549, Conc. 12.5 µMol): 96.41%
Viability % (A549 cell line; A549, Conc. 12.5 µMol): 3.59%
Toxicity % (A549 cell line; A549, Conc. 25 µMol): 96.65%
Viability % (A549 cell line; A549, Conc. 25 µMol): 3.353%
IC50 (A549 cell line; Homo sapiens, read-out: IC50 ± SD): 515 ± 2 nM
